Assay results taken from the NIST ThermoML archive (doi:10.1016/j.fluid.2015.10.026).

Conditions: Brillouin light scattering

CCOC(C)(C)C [2-ethoxy-2-methylpropane]
Conditions | speed of sound [m/s]
433.15 K, 920 kPa, Liquid | 454.82
433.15 K, 2500 kPa, Liquid | 483.99
433.15 K, 4000 kPa, Liquid | 513.28
433.15 K, 5500 kPa, Liquid | 541.29
433.15 K, 7000 kPa, Liquid | 568
433.15 K, 8500 kPa, Liquid | 593.43
433.15 K, 10000 kPa, Liquid | 617.57
443.15 K, 1150 kPa, Liquid | 409.25
443.15 K, 2500 kPa, Liquid | 440.1
443.15 K, 4000 kPa, Liquid | 471.64
443.15 K, 5500 kPa, Liquid | 501.8
443.15 K, 7000 kPa, Liquid | 530.58
443.15 K, 8500 kPa, Liquid | 557.97
443.15 K, 10000 kPa, Liquid | 583.97
453.15 K, 1420 kPa, Gas | 157.35
453.15 K, 1420 kPa, Liquid | 361.97
453.15 K, 2500 kPa, Liquid | 395.94
453.15 K, 4000 kPa, Liquid | 429.85
453.15 K, 5500 kPa, Liquid | 462.29
453.15 K, 7000 kPa, Liquid | 493.25
453.15 K, 8500 kPa, Liquid | 522.72
453.15 K, 10000 kPa, Liquid | 550.71
463.15 K, 1750 kPa, Gas | 149.62
463.15 K, 1750 kPa, Liquid | 312.51
463.15 K, 2500 kPa, Liquid | 351.51
463.15 K, 4000 kPa, Liquid | 387.92
463.15 K, 5500 kPa, Liquid | 422.75
463.15 K, 7000 kPa, Liquid | 456
463.15 K, 10000 kPa, Liquid | 517.77
473.15 K, 2130 kPa, Gas | 140.63
473.15 K, 2130 kPa, Liquid | 260.24
473.15 K, 4000 kPa, Liquid | 345.84
473.15 K, 5500 kPa, Liquid | 383.18
473.15 K, 7000 kPa, Liquid | 418.85
473.15 K, 8500 kPa, Liquid | 452.84
473.15 K, 10000 kPa, Liquid | 485.16
478.15 K, 2340 kPa, Gas | 135.58
483.15 K, 2570 kPa, Gas | 130.09
483.15 K, 2570 kPa, Liquid | 204.36
483.15 K, 4000 kPa, Liquid | 303.61
483.15 K, 5500 kPa, Liquid | 343.59
488.15 K, 2820 kPa, Gas | 123.95
488.15 K, 2820 kPa, Liquid | 174.7
493.15 K, 3090 kPa, Gas | 116.68
493.15 K, 3090 kPa, Liquid | 143.64
493.15 K, 4000 kPa, Liquid | 261.23
493.15 K, 5500 kPa, Liquid | 303.97
511.02 K, 5000 kPa, Fluid (supercritical or subcritical phases) | 203.94
511.07 K, 6000 kPa, Fluid (supercritical or subcritical phases) | 251.63
511.12 K, 7000 kPa, Fluid (supercritical or subcritical phases) | 292.44
511.26 K, 4000 kPa, Fluid (supercritical or subcritical phases) | 109.41
520.05 K, 4000 kPa, Fluid (supercritical or subcritical phases) | 104.01
521 K, 5000 kPa, Fluid (supercritical or subcritical phases) | 155.15
521.16 K, 6000 kPa, Fluid (supercritical or subcritical phases) | 217.02
521.29 K, 7000 kPa, Fluid (supercritical or subcritical phases) | 264.62
529.5 K, 4000 kPa, Fluid (supercritical or subcritical phases) | 118.19
530.2 K, 5000 kPa, Fluid (supercritical or subcritical phases) | 132.08
530.73 K, 6000 kPa, Fluid (supercritical or subcritical phases) | 183.76
530.99 K, 7000 kPa, Fluid (supercritical or subcritical phases) | 234.87
540.45 K, 4000 kPa, Fluid (supercritical or subcritical phases) | 134.27
541.14 K, 5000 kPa, Fluid (supercritical or subcritical phases) | 128.78
541.48 K, 6000 kPa, Fluid (supercritical or subcritical phases) | 158.8
541.85 K, 7000 kPa, Fluid (supercritical or subcritical phases) | 208.25
550 K, 5000 kPa, Fluid (supercritical or subcritical phases) | 134.46
550.06 K, 4000 kPa, Fluid (supercritical or subcritical phases) | 147.6
550.44 K, 6000 kPa, Fluid (supercritical or subcritical phases) | 144.68
550.58 K, 7000 kPa, Fluid (supercritical or subcritical phases) | 188.75
561.04 K, 4000 kPa, Fluid (supercritical or subcritical phases) | 161.59
561.29 K, 5000 kPa, Fluid (supercritical or subcritical phases) | 145.73
561.65 K, 6000 kPa, Fluid (supercritical or subcritical phases) | 145.52
561.96 K, 7000 kPa, Fluid (supercritical or subcritical phases) | 176.1
571.2 K, 6000 kPa, Fluid (supercritical or subcritical phases) | 152.92
571.28 K, 7000 kPa, Fluid (supercritical or subcritical phases) | 169.79
571.33 K, 5000 kPa, Fluid (supercritical or subcritical phases) | 158.34
571.72 K, 4000 kPa, Fluid (supercritical or subcritical phases) | 172.96
579.57 K, 7000 kPa, Fluid (supercritical or subcritical phases) | 169.78
579.66 K, 6000 kPa, Fluid (supercritical or subcritical phases) | 163.68
579.91 K, 5000 kPa, Fluid (supercritical or subcritical phases) | 170.18
580.22 K, 4000 kPa, Fluid (supercritical or subcritical phases) | 182.55
590.12 K, 4000 kPa, Fluid (supercritical or subcritical phases) | 194.12
590.27 K, 7000 kPa, Fluid (supercritical or subcritical phases) | 175.32
590.38 K, 5000 kPa, Fluid (supercritical or subcritical phases) | 185.11
590.39 K, 6000 kPa, Fluid (supercritical or subcritical phases) | 178.89
601.53 K, 7000 kPa, Fluid (supercritical or subcritical phases) | 188.12
601.7 K, 6000 kPa, Fluid (supercritical or subcritical phases) | 193.21
602.16 K, 5000 kPa, Fluid (supercritical or subcritical phases) | 199.29
602.86 K, 4000 kPa, Fluid (supercritical or subcritical phases) | 207.43
611.06 K, 7000 kPa, Fluid (supercritical or subcritical phases) | 202.27
611.36 K, 6000 kPa, Fluid (supercritical or subcritical phases) | 206.2
611.87 K, 5000 kPa, Fluid (supercritical or subcritical phases) | 211.58
612.81 K, 4000 kPa, Fluid (supercritical or subcritical phases) | 217.85
622.53 K, 7000 kPa, Fluid (supercritical or subcritical phases) | 213.01
622.84 K, 6000 kPa, Fluid (supercritical or subcritical phases) | 217.4
623.38 K, 5000 kPa, Fluid (supercritical or subcritical phases) | 222.38
623.94 K, 4000 kPa, Fluid (supercritical or subcritical phases) | 226.9
631.83 K, 7000 kPa, Fluid (supercritical or subcritical phases) | 218.09
632.32 K, 6000 kPa, Fluid (supercritical or subcritical phases) | 223.19
633.27 K, 5000 kPa, Fluid (supercritical or subcritical phases) | 228.01
634.19 K, 4000 kPa, Fluid (supercritical or subcritical phases) | 232.56
643.79 K, 7000 kPa, Fluid (supercritical or subcritical phases) | 224.46
643.86 K, 6000 kPa, Fluid (supercritical or subcritical phases) | 228.16
644.48 K, 5000 kPa, Fluid (supercritical or subcritical phases) | 232.66
645.27 K, 4000 kPa, Fluid (supercritical or subcritical phases) | 236.85
653.83 K, 6000 kPa, Fluid (supercritical or subcritical phases) | 231.78
653.89 K, 7000 kPa, Fluid (supercritical or subcritical phases) | 228.08
654.31 K, 5000 kPa, Fluid (supercritical or subcritical phases) | 235.93
654.75 K, 4000 kPa, Fluid (supercritical or subcritical phases) | 239.86
665 K, 6000 kPa, Fluid (supercritical or subcritical phases) | 234.24
665.08 K, 4000 kPa, Fluid (supercritical or subcritical phases) | 242.03
665.1 K, 5000 kPa, Fluid (supercritical or subcritical phases) | 237.76
665.1 K, 7000 kPa, Fluid (supercritical or subcritical phases) | 230.39
